Here are results for 16 compounds from paper PMC11124822, “Discovery and Anticancer Screening of Novel Oxindole-Based Derivative Bearing Pyridyl Group as Potent and Selective Dual FLT3/CDK2 Kinase Inhibitor” (Pharmaceuticals, 2024).

One experiment has as its system NCI-H522. The experiment can be described thus: NCI-60 antiproliferative screen (SRB). It counts as cell-based, human. As to conditions: 48 h; for inhibition at 10 µM: 10 µM single dose, NCI-H522 (NSCLC), read-out: Growth inhibition (%).
The test system of the next experiment is SF-268. The experiment can be described thus: NCI-60 antiproliferative screen (SRB). It counts as cell-based, human. As to conditions: 48 h; for inhibition at 10 µM: 10 µM single dose, SF-268 (CNS), read-out: Growth inhibition (%).
In the next experiment the target is T1, FGFR1 (Homo sapiens, UniProt P11362).
T1 construct: purchased Invitrogen/Life Technologies
The experiment in a line: Z'-LYTE kinase assay. The format is biochemical. The protocol:
(§1) The inhibition percentages of the target compound 5l at a concentration of 10 µM were assessed using DMSO as a solvent against ten kinases, namely PTK2B, JAK1, CDK2, FGFR1, IGF1R, VEGFR-2, PDGFRα, PDGFRβ, FLT3, and Src. The Z’-LYTE® technology, which relies on FRET (Fluorescence Resonance Energy Transfer) from Invitrogen/Life Technologies, was employed for this evaluation for all kinases except VEGFR-2. The VEGFR-2 kinase assay was conducted in a 96-well streptavidin-coated plate using a recombinant human VEGFR-2/KDR ELISA kit, following the manufacturer’s instructions. […] Statistical significance was assessed using one-way analysis of variance (ANOVA), followed by the Dunnett test; data are represented as means ± SD.

For another experiment, the target named is T2, PDGFRβ (Homo sapiens, UniProt P09619).
T2 construct: purchased Invitrogen/Life Technologies
The experiment can be described thus: Z'-LYTE kinase assay. It counts as biochemical. As to the method:
as §1

The target in a further experiment is T3, SRC (Homo sapiens, UniProt P12931).
T3 construct: purchased Invitrogen/Life Technologies
The experiment can be described thus: Z'-LYTE kinase assay. The format is biochemical. The protocol:
as §1

The target of the next experiment is T4, IGF1R (Homo sapiens, UniProt P08069).
T4 construct: purchased Invitrogen/Life Technologies
The experiment can be described thus: Z'-LYTE kinase assay. It counts as biochemical. As to the method: as §1

In a further experiment the target is T5, PDGFRα (Homo sapiens, UniProt P16234).
T5 construct: purchased Invitrogen/Life Technologies
The experiment can be described thus: Z'-LYTE kinase assay. It counts as biochemical. The protocol: as §1

In the next experiment the target is T6, JAK1 (Homo sapiens, UniProt P23458).
T6 construct: purchased Invitrogen/Life Technologies
The experiment in a line: Z'-LYTE kinase assay. It counts as biochemical. The protocol:
as §1

The target in the next experiment is T7, PTK2B (Homo sapiens, UniProt Q14289).
T7 construct: purchased Invitrogen/Life Technologies
The experiment can be described thus: Z'-LYTE kinase assay. It counts as biochemical. As to the method:
as §1

The next experiment concerns the target T8, VEGFR-2 (Homo sapiens, UniProt P35968).
T8 construct: purchased
The experiment in a line: VEGFR-2/KDR ELISA kit kinase assay. It counts as biochemical. The protocol:
as §1

The target of a further experiment is T9, CDK2 (Homo sapiens, UniProt P24941).
T9 construct: purchased Invitrogen/Life Technologies
The experiment can be described thus: Z'-LYTE kinase assay. The format is biochemical. As to the method:
The Z’-LYTE® technology, which relies on FRET (Fluorescence Resonance Energy Transfer) from Invitrogen/Life Technologies, was employed for this evaluation for all kinases except VEGFR-2. The VEGFR-2 kinase assay was conducted in a 96-well streptavidin-coated plate using a recombinant human VEGFR-2/KDR ELISA kit, following the manufacturer’s instructions. […] Statistical significance was assessed using one-way analysis of variance (ANOVA), followed by the Dunnett test; data are represented as means ± SD.

Another experiment concerns NSCL cancer subpanel. The experiment can be described thus: NCI-60 screen, subpanel summary. The format is cell-based, human. The text has this: (§2) (Table 5). Moreover, the ratio of the MG-MID of the full-panel to its individual sub-panels offers the selectivity index.
A further experiment deals with Renal cancer subpanel. The experiment can be described thus: NCI-60 screen, subpanel summary. The format is cell-based, human.
Source text: as §2

The next experiment deals with Colon cancer subpanel. The experiment can be described thus: NCI-60 screen, subpanel summary. The format is cell-based, human.
Source text: as §2

A further experiment has as its system Melanoma subpanel. The experiment in a line: NCI-60 screen, subpanel summary. The format is cell-based, human.
Source text: as §2

The test system of a further experiment is CNS cancer subpanel. The experiment in a line: NCI-60 screen, subpanel summary. It counts as cell-based, human.
Source text: as §2

A further experiment deals with Leukemia subpanel. The experiment in a line: NCI-60 screen, subpanel summary. The format is cell-based, human.
Source text: as §2

In the next experiment the test system is Ovarian cancer subpanel. The experiment in a line: NCI-60 screen, subpanel summary. The format is cell-based, human.
Source text: as §2

The next experiment relates to Breast cancer subpanel. The experiment can be described thus: NCI-60 screen, subpanel summary. It counts as cell-based, human.
Source text: as §2

In the next experiment the test system is Prostate cancer subpanel. The experiment in a line: NCI-60 screen, subpanel summary. The format is cell-based, human.
Source text: as §2

SMILES strings stand for the structures.

T8 sequence (P35968 20-1356): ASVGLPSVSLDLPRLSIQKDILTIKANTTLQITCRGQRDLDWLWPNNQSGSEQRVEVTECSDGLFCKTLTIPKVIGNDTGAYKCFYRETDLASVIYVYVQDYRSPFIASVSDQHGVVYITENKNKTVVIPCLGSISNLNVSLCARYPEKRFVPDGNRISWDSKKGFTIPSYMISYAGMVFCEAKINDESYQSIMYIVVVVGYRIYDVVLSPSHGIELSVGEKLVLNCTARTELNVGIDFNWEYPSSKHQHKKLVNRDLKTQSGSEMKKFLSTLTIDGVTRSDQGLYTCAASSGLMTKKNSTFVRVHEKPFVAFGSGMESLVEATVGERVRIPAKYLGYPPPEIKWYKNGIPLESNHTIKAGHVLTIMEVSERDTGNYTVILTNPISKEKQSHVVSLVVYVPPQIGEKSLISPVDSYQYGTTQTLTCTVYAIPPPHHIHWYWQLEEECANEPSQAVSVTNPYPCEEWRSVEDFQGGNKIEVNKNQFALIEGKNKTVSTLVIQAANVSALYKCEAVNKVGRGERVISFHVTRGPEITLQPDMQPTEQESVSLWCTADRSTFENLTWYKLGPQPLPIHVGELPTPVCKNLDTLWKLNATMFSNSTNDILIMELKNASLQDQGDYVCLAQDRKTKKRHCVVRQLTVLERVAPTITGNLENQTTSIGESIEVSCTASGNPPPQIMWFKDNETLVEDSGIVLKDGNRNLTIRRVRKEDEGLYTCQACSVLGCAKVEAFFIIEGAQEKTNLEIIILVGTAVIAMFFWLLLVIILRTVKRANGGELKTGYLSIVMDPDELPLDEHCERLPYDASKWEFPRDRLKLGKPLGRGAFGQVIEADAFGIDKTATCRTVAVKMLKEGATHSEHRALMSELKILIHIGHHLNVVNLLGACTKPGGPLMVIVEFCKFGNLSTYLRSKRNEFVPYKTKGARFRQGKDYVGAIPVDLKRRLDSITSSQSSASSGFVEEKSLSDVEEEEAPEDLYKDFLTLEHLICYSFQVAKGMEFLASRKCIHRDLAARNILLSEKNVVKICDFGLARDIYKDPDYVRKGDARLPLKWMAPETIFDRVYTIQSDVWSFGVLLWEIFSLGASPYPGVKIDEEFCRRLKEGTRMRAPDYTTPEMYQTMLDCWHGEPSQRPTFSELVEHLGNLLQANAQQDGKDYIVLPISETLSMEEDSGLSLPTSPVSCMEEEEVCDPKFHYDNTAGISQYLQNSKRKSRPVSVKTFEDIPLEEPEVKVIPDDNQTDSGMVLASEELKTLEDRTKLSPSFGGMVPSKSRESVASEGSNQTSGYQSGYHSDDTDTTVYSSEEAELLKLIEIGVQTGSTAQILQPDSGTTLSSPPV
T6 sequence (P23458 whole entry): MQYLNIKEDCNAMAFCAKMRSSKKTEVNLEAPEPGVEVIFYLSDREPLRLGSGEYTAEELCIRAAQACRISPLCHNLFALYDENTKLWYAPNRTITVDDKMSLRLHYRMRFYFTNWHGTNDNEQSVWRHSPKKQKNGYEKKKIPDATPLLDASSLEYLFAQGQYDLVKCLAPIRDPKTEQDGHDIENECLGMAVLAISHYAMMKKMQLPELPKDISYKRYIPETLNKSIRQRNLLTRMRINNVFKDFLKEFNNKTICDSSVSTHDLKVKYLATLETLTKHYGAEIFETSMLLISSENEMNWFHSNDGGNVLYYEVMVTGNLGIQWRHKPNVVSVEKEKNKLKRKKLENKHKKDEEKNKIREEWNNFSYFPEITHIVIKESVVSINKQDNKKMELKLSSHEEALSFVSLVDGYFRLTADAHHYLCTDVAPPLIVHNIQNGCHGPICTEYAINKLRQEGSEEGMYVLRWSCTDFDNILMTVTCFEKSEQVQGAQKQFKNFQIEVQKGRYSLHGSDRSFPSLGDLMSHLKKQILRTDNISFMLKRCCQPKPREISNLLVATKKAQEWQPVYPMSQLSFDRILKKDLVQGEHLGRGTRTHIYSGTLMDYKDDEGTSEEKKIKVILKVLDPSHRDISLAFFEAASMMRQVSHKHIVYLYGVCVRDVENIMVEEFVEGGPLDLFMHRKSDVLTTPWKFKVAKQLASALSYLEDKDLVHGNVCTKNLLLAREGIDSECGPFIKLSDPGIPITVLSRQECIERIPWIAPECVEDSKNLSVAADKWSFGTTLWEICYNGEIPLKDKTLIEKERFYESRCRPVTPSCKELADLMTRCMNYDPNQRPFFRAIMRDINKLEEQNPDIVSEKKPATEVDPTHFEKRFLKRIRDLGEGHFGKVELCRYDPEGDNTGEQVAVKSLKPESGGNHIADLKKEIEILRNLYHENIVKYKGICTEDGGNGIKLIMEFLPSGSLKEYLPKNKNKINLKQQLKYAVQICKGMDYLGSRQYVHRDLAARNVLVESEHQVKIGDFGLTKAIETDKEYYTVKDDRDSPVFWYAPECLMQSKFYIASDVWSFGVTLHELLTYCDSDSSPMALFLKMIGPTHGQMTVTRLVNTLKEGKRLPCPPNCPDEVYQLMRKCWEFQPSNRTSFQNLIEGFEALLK
T1 sequence (P11362 22-822): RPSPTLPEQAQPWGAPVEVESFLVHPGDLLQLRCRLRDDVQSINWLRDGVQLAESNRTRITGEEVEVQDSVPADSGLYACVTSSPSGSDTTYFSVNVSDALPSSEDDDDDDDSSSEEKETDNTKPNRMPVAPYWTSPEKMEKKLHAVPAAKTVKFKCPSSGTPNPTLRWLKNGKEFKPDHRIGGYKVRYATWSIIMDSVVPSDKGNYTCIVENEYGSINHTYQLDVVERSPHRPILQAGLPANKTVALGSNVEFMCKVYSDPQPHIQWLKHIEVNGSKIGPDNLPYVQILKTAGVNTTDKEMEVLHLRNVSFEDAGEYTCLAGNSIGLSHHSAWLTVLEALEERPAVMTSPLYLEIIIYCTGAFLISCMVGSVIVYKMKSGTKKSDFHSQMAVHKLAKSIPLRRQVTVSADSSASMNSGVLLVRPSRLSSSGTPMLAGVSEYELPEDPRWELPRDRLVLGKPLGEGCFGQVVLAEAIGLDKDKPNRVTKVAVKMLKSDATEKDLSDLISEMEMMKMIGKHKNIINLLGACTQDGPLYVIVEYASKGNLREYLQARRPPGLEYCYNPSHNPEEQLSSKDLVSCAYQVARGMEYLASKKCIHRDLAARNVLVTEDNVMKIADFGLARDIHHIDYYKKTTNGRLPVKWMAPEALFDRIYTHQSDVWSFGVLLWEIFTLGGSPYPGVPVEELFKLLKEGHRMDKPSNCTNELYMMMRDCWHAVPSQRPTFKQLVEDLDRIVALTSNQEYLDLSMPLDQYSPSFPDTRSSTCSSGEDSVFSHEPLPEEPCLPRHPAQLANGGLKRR
T3 sequence (P12931 whole entry): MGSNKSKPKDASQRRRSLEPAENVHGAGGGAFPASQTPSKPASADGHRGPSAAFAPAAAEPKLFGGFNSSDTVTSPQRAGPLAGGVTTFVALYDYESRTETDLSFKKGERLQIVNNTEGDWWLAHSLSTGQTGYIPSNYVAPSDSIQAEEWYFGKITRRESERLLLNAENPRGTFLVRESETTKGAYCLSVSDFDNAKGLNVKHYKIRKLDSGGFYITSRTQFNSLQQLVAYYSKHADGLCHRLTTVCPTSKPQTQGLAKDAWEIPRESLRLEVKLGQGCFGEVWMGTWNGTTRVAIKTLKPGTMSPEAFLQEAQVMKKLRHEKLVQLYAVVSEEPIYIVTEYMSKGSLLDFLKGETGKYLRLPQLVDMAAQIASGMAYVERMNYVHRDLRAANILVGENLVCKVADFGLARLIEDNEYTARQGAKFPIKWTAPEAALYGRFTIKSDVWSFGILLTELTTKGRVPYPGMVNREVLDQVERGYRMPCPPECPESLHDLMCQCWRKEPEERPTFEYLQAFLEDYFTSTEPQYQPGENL
T5 sequence (P16234 24-1089): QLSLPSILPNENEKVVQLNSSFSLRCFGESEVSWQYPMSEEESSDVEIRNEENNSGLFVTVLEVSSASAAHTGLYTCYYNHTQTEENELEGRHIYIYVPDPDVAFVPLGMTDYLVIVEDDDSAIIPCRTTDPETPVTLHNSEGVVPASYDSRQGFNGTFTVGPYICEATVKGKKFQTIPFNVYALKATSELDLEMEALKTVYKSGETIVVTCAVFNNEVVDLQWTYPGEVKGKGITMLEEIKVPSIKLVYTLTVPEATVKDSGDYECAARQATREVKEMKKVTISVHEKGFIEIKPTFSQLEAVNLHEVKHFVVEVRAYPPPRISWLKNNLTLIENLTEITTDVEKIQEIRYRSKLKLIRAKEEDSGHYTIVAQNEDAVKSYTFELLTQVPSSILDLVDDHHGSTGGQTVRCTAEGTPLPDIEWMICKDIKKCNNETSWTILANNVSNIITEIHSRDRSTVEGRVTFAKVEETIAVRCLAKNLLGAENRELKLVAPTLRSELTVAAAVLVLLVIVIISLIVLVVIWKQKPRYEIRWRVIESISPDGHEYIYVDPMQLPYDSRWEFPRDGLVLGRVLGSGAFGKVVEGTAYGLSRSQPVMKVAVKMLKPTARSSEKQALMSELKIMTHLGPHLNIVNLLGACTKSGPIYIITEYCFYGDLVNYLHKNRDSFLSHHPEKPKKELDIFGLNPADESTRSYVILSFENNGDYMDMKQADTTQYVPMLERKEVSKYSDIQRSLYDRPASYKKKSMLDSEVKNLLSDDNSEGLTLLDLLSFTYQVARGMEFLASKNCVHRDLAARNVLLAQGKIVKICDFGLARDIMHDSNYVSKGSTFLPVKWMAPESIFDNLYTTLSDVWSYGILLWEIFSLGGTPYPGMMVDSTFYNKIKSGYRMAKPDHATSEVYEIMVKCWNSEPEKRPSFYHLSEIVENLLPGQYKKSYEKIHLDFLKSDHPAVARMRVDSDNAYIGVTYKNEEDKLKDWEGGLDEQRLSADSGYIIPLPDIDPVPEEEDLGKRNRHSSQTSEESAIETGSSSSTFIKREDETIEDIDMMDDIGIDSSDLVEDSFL

The inhibition is the change of the read-out against control, counted positive when it falls. On to `O=C1Nc2cc(Cl)ccc2C1=Cc1ccc(OCc2ccncc2)cc1` (mixture of isomers) [Compound 5p, (E/Z)-6-Chloro-3-[4-(pyridin-4-ylmethoxy)benzylidene]indolin-2-one], for which the inhibition at 10 µM with NCI-H522 (Homo sapiens) amounted to 45.2%; in the experiment with SF-268 (Homo sapiens) it was 16.7%.
For `O=C1Nc2ccc(F)cc2C1=Cc1ccc(OCc2ccncc2)cc1` (mixture of isomers) [Compound 5n, (E/Z)-5-Fluoro-3-[4-(pyridin-4-ylmethoxy)benzylidene] indolin-2-one], the inhibition at 10 µM in the experiment with NCI-H522 (Homo sapiens) worked out at 82%; in the experiment on SF-268 (Homo sapiens) it was 38.8%.
The matching figures for `O=C1Nc2ccc(F)cc2C1=Cc1ccc(OCc2ccccn2)cc1` (mixture of isomers) [Compound 5f, (E/Z)-5-fluoro-3-[4-(pyridin-2-ylmethoxy)benzylidene]indolin-2-one]: 68.1% and 29.9%.
On the same counts, the results for `O=C1Nc2ccc(F)cc2C1=Cc1ccc(OCc2cccnc2)cc1` (mixture of isomers) [Compound 5j, (E/Z)-5-Fluoro-3-[4-(pyridin-3-ylmethoxy)benzylidene]indolin-2-one] are 89.5% and 11.1%.
On the same counts, the results for `O=C1Nc2ccc(F)cc2C1=Cc1ccc(OCc2ccccc2)cc1` (mixture of isomers) [Compound 5b, (E/Z)-3-[4-(Benzyloxy)benzylidene]-5-fluoroindolin-2-one] are 5.91% and 5.43%.
As to `O=C1Nc2ccc(Cl)cc2C1=Cc1ccc(OCc2ccncc2)cc1` (mixture of isomers) [Compound 5o, (E/Z)-5-Chloro-3-[4-(pyridin-4-ylmethoxy)benzylidene] indolin-2-one], the results for the inhibition at 10 µM in the experiment with NCI-H522 (Homo sapiens) and with SF-268 (Homo sapiens) were 86% and 55.7%, respectively.
Turning to `O=C1Nc2ccccc2C1=Cc1ccc(OCc2cccnc2)cc1` (mixture of isomers) [Compound 5i, (E/Z)-3-[4-(Pyridin-3-ylmethoxy)benzylidene]indolin-2-one], the inhibition at 10 µM was 49.9% in the experiment on NCI-H522 (Homo sapiens) and -19.6% in the experiment on SF-268 (Homo sapiens).
On the same counts, the results for `O=C1Nc2ccccc2C1=Cc1ccc(OCc2ccccn2)cc1` (mixture of isomers) [Compound 5e, (E/Z)-3-[4-(Pyridin-2-ylmethoxy]benzylidene) indolin-2-one] are 24.6% and 27.3%.
What is called GI50 is the concentration that inhibits growth by half. One may read the TGI as the concentration at which net growth stops. A word on the IC50: it is the midpoint of a concentration-inhibition curve. The low end stands for inhibition by little substance, the high end for a need for much substance. Take `O=C1Nc2cc(Cl)ccc2C1=Cc1ccc(OCc2cccnc2)cc1` (mixture of isomers) [Compound 5l, (E/Z)-6-Chloro-3-[4-(pyridin-3-ylmethoxy)benzylidene] indolin-2-one]: the inhibition at 10 µM against FGFR1 came to 24.1%; against PDGFRβ, 26.6%; against SRC, 10.9%; against IGF1R, 2.88%; against PDGFRα, 43.5%; at JAK1, 4.17%. Besides, the inhibition at 10 µM against PTK2B is 9.96%; against VEGFR-2, 38.5%; in the experiment on NCI-H522 (Homo sapiens), 104%; on CDK2 (10 µM, CDK2), 87.7%; in the experiment on SF-268 (Homo sapiens), 45.4%; in the experiment on Colon cancer subpanel (Homo sapiens, 10 µM, colon cancer, read-out: overall inhibition in panel (radar chart)), more than 90%. Besides, the inhibition at 10 µM with Melanoma subpanel (Homo sapiens, 10 µM, melanoma, read-out: overall inhibition in panel (radar chart)) was more than 90%; in the experiment on Leukemia subpanel (Homo sapiens, 10 µM, leukemia, read-out: overall inhibition in panel (radar chart)) it was more than 90%. The GI50 in the experiment with NCI-H522 (Homo sapiens, five-dose, NCI-H522) was 12.3 µM; with SF-268 (Homo sapiens, five-dose, SF-268), 10.8 µM; in the experiment on NSCL cancer subpanel (Homo sapiens, five-dose, NSCL cancer subpanel, read-out: MG-MID (GI50)), 11.7 µM; in the experiment on Renal cancer subpanel (Homo sapiens, five-dose, Renal cancer subpanel, read-out: MG-MID (GI50)), 19.8 µM; with Colon cancer subpanel (Homo sapiens, five-dose, Colon cancer subpanel, read-out: MG-MID (GI50)), 5.97 µM; in the experiment on Melanoma subpanel (Homo sapiens, five-dose, Melanoma subpanel, read-out: MG-MID (GI50)), 10.9 µM. The GI50 came to 11 µM in the experiment with CNS cancer subpanel (Homo sapiens, five-dose, CNS cancer subpanel, read-out: MG-MID (GI50)); 3.39 µM in the experiment with Leukemia subpanel (Homo sapiens, five-dose, Leukemia subpanel, read-out: MG-MID (GI50)); 29.4 µM in the experiment on Ovarian cancer subpanel (Homo sapiens, five-dose, Ovarian cancer subpanel, read-out: MG-MID (GI50)); 8.14 µM with Breast cancer subpanel (Homo sapiens, five-dose, Breast cancer subpanel, read-out: MG-MID (GI50)); 9.78 µM in the experiment on Prostate cancer subpanel (Homo sapiens, five-dose, Prostate cancer subpanel, read-out: MG-MID (GI50)). The total growth inhibition concentration (TGI) in the experiment on NCI-H522 (five-dose, NCI-H522) is given as 82.20 µM; in the experiment on SF-268 (five-dose, SF-268), 88.10 µM. At CDK2 (three separate experiments ± SD), the IC50 was determined as 0.00817 ± 0.00032 µM. For the same compound, the CC50 with SF-268 (Homo sapiens, five-dose, SF-268, read-out: LC50 (the source's name)) was more than 100 µM. Moreover, the “Selectivity Index” value with NSCL cancer subpanel (ratio of full-panel MG-MID to NSCL cancer subpanel MG-MID) amounted to 1.05; with Renal cancer subpanel (ratio of full-panel MG-MID to Renal cancer subpanel MG-MID), 0.62; in the experiment on Colon cancer subpanel (ratio of full-panel MG-MID to Colon cancer subpanel MG-MID), 2.05; in the experiment with Melanoma subpanel (ratio of full-panel MG-MID to Melanoma subpanel MG-MID), 1.12; with CNS cancer subpanel (ratio of full-panel MG-MID to CNS cancer subpanel MG-MID), 1.11; in the experiment with Leukemia subpanel (ratio of full-panel MG-MID to Leukemia subpanel MG-MID), 3.61. In addition, the “Selectivity Index” value in the experiment with Ovarian cancer subpanel (ratio of full-panel MG-MID to Ovarian cancer subpanel MG-MID) was 0.42; in the experiment on Breast cancer subpanel (ratio of full-panel MG-MID to Breast cancer subpanel MG-MID), 1.50; in the experiment on Prostate cancer subpanel (ratio of full-panel MG-MID to Prostate cancer subpanel MG-MID), 1.25.
As for `O=C1Nc2cc(Cl)ccc2C1=Cc1ccc(OCc2ccccn2)cc1` (mixture of isomers) [Compound 5h, (E/Z)-6-Chloro-3-[4-(pyridin-2-ylmethoxy)benzylidene]indolin-2-one], the inhibition at 10 µM was 31.6% in the experiment on NCI-H522 (Homo sapiens) and 23.2% in the experiment with SF-268 (Homo sapiens).
On the same counts, the results for `O=C1Nc2cc(Cl)ccc2C1=Cc1ccc(OCc2ccccc2)cc1` (mixture of isomers) [Compound 5d, (E/Z)-3-[4-(Benzyloxy)benzylidene]-6-chloroindolin-2-one] are 0.19% and 5.55%.
On to `O=C1Nc2ccc(Cl)cc2C1=Cc1ccc(OCc2cccnc2)cc1` (mixture of isomers) [Compound 5k, (E/Z)-5-Chloro-3-[4-(pyridin-3-ylmethoxy)benzylidene] indolin-2-one], for which the values for the inhibition at 10 µM in the experiment on NCI-H522 (Homo sapiens) and with SF-268 (Homo sapiens) were 19.8% and 5.1%, respectively.
As for `O=C1Nc2ccc(Cl)cc2C1=Cc1ccc(OCc2ccccc2)cc1` (mixture of isomers) [Compound 5c, (E/Z)-3-[4-(Benzyloxy)benzylidene]-5-chloroindolin-2-one], the inhibition at 10 µM came to 2.1% with NCI-H522 (Homo sapiens) and 3.26% with SF-268 (Homo sapiens).
For the compound `O=C1Nc2ccccc2C1=Cc1ccc(OCc2ccccc2)cc1` (mixture of isomers) [Compound 5a, (E/Z)-3-[4-(Benzyloxy)benzylidene] indolin-2-one], the inhibition at 10 µM with NCI-H522 (Homo sapiens) is 2.18%; with SF-268 (Homo sapiens) it was -1.74%.
On the same counts, the results for `O=C1Nc2ccccc2C1=Cc1ccc(OCc2ccncc2)cc1` (mixture of isomers) [Compound 5m, (E/Z)-3-[4-(Pyridin-4-ylmethoxy)benzylidene] indolin-2-one] are 32.7% and 22.7%.
For the compound `O=C1Nc2ccc(Cl)cc2C1=Cc1ccc(OCc2ccccn2)cc1` (mixture of isomers) [Compound 5g, (E/Z)-5-Chloro-3-[4-(pyridin-2-ylmethoxy)benzylidene] indolin-2-one], the figures for the inhibition at 10 µM with NCI-H522 (Homo sapiens) and in the experiment on SF-268 (Homo sapiens) were 34% and 20.7%, respectively.
